Key:
tmNrdD = biological target: T1, tmNrdD (Thermotoga maritima, UniProt Q9WYL6); assay: X-ray crystallography; format: binding
T1 construct: gene TM_0385; recombinant in E. coli, homodimer; residues to 651, Gly621 radical site

[1] = biological target: anaerobic (class III) ribonucleotide reductase from Thermotoga maritima (Thermotoga maritima); assay: crystal structure; tmNrdD dimer in the asymmetric unit, space group P2_(1); apo forms with glycerol, MES or citrate in the active site, and complexes with dATP or dATP/CTP; resolutions from 2.4 Å to 1.92 Å

T1 sequence (Q9WYL6 entry or part of it): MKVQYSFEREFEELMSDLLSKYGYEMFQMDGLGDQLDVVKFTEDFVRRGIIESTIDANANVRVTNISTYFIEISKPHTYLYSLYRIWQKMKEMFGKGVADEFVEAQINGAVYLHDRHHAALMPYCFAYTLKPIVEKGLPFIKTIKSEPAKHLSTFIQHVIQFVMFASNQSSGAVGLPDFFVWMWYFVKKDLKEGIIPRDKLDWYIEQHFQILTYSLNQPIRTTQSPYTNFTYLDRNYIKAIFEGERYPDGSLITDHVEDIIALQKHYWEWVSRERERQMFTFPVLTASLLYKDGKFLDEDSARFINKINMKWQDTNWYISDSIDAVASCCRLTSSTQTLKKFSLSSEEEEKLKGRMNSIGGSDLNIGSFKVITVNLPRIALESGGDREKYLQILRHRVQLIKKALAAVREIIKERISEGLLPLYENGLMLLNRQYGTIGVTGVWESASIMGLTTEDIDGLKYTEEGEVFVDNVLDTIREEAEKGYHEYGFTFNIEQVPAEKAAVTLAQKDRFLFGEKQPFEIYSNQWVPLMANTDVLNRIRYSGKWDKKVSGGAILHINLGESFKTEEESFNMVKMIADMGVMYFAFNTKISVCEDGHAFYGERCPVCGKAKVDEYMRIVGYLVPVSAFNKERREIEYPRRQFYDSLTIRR

**Q.** `Nc1ccn([C@@H]2O[C@H](COP(=O)(O)OP(=O)(O)OP(=O)(O)O)[C@@H](O)[C@H]2O)c(=O)n1` [CTP] was tested. Which X-ray crystallography (tmNrdD; active site, with effector dATP, soak or co-crystal 2 mM CTP, also reduced to dCTP in assay with MBP-tmNrdG and T. maritima cell extract) did it give?
**A.** represents the first structure of an anaerobic, class III RNR with a substrate

**Q.** How did the stoichiometry N [1] turn out when “anaerobic (class III) ribonucleotide reductase from Thermotoga maritima (enzyme)” was run?
**A.** 2

**Q.** How did the X-ray crystallography (tmNrdD; allosteric specificity effector site at dimer interface, Mg2+ (Mn2+ substituted), dATP alone 4COL, also with CTP 4COJ, soak or co-crystal 0.5 mM dATP) turn out when `Nc1ncnc2c1ncn2[C@H]1C[C@H](O)[C@@H](COP(=O)(O)OP(=O)(O)OP(=O)(O)O)O1` [dATP] was run?
**A.** The effector dATP binds at the dimer interface, along the length of helices αA and αB

Reference: paper PMC4493059, “The Crystal Structure of Thermotoga maritima Class III Ribonucleotide Reductase Lacks a Radical Cysteine Pre-Positioned in the Active Site” (PLoS ONE, 2015)
